Measured values taken from ChEMBL document CHEMBL5696442, “Discovery of type II inhibitors of TGFβ-activated kinase 1 (TAK1) and mitogen-activated protein kinase kinase kinase kinase 2 (MAP4K2)” (J Med Chem, 2015).
The source made the active and inactive calls. The rule behind the calls is not given here.

How the values were obtained:
[1] = biological target: T1, Mitogen-activated protein kinase kinase kinase 2 (Homo sapiens) (UniProt Q9Y2U5); test: Inhibition of MAP3K2 Lys1 labeling site harbouring ELAVKQVQFDPDSPETSKEVNALECEIQLLK in human A-375 cells at 0.5 uM by KiNativ Profiling analysis relative to control; assay type: cell-based
T1 sequence (whole entry): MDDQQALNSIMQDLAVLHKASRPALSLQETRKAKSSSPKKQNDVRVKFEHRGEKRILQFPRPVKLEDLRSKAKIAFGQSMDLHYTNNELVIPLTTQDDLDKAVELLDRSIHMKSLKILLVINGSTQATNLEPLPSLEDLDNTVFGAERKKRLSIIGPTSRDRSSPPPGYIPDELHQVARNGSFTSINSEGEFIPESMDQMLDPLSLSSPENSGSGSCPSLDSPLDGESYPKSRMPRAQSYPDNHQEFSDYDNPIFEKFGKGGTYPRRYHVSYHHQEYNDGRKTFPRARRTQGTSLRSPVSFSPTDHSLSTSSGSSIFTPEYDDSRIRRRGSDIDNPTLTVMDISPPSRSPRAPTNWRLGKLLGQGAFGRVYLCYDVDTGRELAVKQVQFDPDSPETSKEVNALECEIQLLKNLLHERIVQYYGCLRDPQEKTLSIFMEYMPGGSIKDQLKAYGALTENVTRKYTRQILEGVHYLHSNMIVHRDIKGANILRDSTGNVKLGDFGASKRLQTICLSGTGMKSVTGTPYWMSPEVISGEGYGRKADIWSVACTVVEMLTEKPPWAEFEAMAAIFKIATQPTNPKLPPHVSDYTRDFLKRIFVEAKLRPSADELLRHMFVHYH

[2] = Inhibition of KHS1/2 K2 labeling site in human Huh-7 cells at 10 uM by KiNativ Profiling analysis relative to control; conditions: condition cancer
[3] = biological target: Dual specificity protein kinase CLK1 (Homo sapiens) (UniProt P49759); test: Inhibition of CLK1 (unknown origin) at 10 uM by Ambit Kinomescan binding assay
[4] = biological target: Tyrosine-protein kinase ABL1 (Homo sapiens, UniProt P00519); test: Inhibition of ABL1 (unknown origin) at 10 uM by Ambit Kinomescan binding assay relative to control; values are per cent of control
[5] = biological target: T2, Serine/threonine-protein kinase Chk1 (Homo sapiens) (UniProt O14757); test: Inhibition of CHK1 in human Huh-7 cells at 1 uM by KiNativ Profiling analysis relative to control; assay type: cell-based
T2 sequence (whole entry): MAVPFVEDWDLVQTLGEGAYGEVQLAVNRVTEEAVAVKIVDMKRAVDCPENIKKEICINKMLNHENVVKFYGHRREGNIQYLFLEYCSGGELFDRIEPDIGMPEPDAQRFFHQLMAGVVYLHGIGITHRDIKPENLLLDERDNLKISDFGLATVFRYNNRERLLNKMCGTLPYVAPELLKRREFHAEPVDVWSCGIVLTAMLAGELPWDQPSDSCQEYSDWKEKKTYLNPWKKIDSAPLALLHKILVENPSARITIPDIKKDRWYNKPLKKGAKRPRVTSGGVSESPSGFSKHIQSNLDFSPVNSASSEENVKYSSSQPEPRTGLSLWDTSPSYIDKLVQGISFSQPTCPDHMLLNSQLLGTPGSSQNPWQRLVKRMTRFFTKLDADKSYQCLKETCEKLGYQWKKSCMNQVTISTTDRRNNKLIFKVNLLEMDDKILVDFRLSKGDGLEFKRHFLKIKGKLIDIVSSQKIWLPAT

[6] = biological target: Calcium/calmodulin-dependent protein kinase type II subunit gamma (Homo sapiens) (UniProt Q13555); test: Inhibition of CAMK2G (unknown origin) at 10 uM by Ambit Kinomescan binding assay
Chain of Calcium/calmodulin-dependent protein kinase type II subunit gamma (Homo sapiens) (Q13555 whole entry, canonical isoform): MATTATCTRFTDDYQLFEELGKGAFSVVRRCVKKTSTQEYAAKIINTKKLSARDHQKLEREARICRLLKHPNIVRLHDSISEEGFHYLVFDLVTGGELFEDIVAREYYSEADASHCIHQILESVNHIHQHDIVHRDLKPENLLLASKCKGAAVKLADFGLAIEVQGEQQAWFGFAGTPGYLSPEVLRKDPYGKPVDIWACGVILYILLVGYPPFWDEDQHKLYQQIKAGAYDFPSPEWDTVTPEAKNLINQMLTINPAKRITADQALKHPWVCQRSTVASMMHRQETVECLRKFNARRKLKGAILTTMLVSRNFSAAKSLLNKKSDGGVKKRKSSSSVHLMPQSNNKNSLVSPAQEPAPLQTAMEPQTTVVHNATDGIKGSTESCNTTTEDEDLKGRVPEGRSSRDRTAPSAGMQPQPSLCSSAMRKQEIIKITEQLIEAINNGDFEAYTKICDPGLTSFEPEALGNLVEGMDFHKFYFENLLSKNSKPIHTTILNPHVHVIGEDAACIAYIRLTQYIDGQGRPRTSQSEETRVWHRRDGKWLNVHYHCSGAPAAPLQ

[7] = biological target: Calcium/calmodulin-dependent protein kinase type II subunit delta (Homo sapiens) (UniProt Q13557); test: Inhibition of CaMK2d Lys1 labeling site harbouring IPTGQEYAAKIINTKK in human Huh-7 cells at 1 uM by KiNativ Profiling analysis relative to control; assay type: cell-based
[8] = biological target: Serine-protein kinase ATM (Homo sapiens) (UniProt Q13315); test: Inhibition of ATM ATP labeling site in human Huh-7 cell lysate at 1 uM by KiNativ Profiling analysis relative to control; assay type: subcellular
Chain of Serine-protein kinase ATM (Homo sapiens) (Q13315 whole entry): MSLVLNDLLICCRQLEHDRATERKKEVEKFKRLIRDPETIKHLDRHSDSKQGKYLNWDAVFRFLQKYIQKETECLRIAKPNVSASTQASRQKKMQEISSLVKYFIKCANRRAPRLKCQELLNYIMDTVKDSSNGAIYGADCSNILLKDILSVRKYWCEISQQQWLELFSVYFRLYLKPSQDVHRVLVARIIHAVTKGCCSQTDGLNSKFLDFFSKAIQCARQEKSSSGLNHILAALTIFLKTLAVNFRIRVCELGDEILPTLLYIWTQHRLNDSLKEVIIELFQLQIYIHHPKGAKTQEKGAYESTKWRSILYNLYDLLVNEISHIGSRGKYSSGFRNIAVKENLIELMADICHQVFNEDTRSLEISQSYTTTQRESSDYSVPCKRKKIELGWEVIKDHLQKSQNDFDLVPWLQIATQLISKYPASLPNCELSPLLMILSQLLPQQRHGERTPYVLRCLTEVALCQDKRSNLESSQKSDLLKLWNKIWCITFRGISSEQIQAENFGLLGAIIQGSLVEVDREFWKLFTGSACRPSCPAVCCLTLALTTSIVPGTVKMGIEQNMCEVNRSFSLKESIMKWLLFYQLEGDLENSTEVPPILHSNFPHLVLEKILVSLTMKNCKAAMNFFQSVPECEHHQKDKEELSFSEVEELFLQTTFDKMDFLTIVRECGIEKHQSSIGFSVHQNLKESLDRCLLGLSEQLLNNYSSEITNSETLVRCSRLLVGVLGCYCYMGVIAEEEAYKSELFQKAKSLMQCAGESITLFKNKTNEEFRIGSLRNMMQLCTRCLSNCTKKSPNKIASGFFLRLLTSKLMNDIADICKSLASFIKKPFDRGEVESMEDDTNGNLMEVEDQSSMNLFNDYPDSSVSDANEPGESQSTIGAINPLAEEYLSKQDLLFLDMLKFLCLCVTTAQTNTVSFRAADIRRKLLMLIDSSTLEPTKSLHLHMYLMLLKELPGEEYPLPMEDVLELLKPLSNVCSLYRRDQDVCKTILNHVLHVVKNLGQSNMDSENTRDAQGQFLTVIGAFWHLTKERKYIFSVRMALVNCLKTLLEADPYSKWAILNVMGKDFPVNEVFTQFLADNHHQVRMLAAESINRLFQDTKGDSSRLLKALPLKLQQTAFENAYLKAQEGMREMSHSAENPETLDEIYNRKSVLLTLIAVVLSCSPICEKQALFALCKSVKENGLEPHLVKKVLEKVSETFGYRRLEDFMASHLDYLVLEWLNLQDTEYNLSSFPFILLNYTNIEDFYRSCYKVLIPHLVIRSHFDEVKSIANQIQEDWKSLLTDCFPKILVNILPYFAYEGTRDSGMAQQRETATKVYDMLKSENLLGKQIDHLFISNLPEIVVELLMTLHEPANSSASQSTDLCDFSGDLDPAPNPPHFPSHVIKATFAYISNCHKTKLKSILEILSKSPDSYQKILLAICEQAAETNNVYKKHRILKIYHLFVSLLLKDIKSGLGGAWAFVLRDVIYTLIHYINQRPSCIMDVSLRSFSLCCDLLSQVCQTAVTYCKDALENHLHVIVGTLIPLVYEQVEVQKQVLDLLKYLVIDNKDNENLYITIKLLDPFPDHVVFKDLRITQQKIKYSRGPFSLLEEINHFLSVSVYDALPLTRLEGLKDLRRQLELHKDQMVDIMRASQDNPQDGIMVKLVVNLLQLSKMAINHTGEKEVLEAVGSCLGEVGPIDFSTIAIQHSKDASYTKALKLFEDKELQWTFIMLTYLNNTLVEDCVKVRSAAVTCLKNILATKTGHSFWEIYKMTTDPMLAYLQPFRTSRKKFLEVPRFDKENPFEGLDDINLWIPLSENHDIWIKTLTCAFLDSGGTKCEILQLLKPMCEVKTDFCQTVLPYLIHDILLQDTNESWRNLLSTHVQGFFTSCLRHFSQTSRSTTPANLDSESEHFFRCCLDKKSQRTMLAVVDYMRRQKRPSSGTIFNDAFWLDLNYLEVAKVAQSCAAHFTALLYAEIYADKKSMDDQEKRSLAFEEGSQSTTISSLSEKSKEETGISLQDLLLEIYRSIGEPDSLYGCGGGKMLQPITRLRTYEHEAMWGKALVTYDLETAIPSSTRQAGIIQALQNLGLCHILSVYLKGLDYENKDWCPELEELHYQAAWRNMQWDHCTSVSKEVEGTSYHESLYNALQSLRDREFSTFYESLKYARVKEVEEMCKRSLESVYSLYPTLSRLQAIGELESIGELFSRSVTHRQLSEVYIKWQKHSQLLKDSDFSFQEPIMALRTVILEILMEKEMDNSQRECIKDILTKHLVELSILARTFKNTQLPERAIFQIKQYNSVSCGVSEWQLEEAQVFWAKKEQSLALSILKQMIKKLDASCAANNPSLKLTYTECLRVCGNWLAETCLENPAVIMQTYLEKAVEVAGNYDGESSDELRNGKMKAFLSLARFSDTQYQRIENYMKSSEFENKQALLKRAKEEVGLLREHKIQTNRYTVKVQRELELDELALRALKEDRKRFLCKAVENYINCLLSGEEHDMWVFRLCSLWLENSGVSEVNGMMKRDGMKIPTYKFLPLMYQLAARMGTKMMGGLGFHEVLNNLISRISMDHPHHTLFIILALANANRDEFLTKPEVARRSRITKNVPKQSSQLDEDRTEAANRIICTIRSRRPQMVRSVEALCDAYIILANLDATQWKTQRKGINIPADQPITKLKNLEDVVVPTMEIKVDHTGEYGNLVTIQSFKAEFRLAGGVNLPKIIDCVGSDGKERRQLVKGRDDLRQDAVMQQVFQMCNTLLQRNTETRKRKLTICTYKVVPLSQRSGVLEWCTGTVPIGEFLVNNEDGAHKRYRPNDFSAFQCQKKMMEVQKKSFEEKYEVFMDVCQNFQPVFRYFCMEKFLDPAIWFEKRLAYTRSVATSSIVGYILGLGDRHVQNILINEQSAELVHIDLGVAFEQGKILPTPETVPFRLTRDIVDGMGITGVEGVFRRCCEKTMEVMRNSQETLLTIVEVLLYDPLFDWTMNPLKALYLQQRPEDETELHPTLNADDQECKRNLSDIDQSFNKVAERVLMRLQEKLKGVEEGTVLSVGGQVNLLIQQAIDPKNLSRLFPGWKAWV

[9] = biological target: Calcium/calmodulin-dependent protein kinase type II subunit gamma (Homo sapiens) (UniProt Q13555); test: Inhibition of CaMK2g Lys2 labeling site in human Huh-7 cell lysate at 1 uM by KiNativ Profiling analysis relative to control; assay type: subcellular
[10] = biological target: Phosphatidylinositol 4,5-bisphosphate 3-kinase catalytic subunit beta isoform (Homo sapiens) (UniProt P42338); test: Inhibition of PIK3CB ATP labeling site harbouring VFGEDSVGVIFKNGDDLR in human Huh-7 cell lysate at 1 uM by KiNativ Profiling analysis relative to control; assay type: subcellular
Chain of Phosphatidylinositol 4,5-bisphosphate 3-kinase catalytic subunit beta isoform (Homo sapiens) (P42338 whole entry, looked up, canonical isoform): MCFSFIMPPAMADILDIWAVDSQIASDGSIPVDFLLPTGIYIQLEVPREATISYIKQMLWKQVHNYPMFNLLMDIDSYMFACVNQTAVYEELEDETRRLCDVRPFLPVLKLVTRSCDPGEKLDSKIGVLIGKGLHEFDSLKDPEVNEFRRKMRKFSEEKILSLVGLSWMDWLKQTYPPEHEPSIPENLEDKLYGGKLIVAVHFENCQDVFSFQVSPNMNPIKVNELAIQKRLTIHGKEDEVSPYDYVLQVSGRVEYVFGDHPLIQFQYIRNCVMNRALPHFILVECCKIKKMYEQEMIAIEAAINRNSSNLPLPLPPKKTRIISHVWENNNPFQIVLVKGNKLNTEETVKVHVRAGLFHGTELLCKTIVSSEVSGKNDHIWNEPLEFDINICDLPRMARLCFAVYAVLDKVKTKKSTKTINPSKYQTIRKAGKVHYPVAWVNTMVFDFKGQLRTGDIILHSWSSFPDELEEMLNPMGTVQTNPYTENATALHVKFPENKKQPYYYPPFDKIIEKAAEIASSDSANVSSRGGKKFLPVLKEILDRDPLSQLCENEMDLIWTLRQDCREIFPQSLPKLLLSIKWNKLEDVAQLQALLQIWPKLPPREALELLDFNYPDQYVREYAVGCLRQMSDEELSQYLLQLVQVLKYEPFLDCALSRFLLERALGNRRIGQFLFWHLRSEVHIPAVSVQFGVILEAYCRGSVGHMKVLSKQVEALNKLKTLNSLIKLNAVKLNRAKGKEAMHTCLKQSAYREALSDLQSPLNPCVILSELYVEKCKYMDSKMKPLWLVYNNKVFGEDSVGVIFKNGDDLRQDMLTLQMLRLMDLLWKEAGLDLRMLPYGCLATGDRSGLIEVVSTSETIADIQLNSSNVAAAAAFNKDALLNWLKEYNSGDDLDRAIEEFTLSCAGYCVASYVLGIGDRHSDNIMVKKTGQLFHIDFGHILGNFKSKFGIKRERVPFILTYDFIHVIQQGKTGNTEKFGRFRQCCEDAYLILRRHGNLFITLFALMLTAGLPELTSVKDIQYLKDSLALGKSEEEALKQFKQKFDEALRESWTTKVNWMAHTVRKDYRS

[11] = biological target: T3, Serine/threonine-protein kinase TAO1 (Homo sapiens) (UniProt Q7L7X3); test: Inhibition of TAO1 Lys2 labeling site in human Huh-7 cells at 1 uM by KiNativ Profiling analysis relative to control; assay type: cell-based
T3 sequence (whole entry): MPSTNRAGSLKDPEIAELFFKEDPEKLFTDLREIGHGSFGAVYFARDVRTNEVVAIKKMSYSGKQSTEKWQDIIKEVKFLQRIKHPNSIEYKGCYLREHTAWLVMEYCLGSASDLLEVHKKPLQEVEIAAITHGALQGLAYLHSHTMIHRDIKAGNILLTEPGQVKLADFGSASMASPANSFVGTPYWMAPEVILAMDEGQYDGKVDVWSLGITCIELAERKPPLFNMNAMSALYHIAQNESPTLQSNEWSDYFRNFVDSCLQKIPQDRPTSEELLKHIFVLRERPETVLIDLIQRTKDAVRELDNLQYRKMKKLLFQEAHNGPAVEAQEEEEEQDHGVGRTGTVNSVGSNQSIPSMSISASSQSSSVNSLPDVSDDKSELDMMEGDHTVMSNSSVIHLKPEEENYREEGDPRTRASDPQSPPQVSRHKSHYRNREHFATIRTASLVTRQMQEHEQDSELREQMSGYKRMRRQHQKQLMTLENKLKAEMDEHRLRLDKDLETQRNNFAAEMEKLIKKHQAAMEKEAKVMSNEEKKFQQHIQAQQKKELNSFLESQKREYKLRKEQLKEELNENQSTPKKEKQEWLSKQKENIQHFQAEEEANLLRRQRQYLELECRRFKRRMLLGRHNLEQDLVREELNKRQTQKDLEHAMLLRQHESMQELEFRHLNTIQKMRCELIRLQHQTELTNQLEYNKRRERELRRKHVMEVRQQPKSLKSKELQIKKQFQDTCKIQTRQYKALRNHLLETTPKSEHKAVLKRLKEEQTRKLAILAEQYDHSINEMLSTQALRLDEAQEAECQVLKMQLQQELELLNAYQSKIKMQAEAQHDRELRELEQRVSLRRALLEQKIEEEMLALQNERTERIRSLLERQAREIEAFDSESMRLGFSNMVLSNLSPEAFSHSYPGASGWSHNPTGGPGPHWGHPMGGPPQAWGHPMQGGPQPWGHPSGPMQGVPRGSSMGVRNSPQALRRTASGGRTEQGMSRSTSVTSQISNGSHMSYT

SMILES | inhibition [1] [%] | inhibition at 10 µM [2] [%] | inhibition [3] | percent of control [4] [%] | inhibition [5] [%] | inhibition [6] | inhibition [7] [%] | inhibition [8] [%] | inhibition [9] [%] | inhibition [10] [%] | inhibition [11] [%]
CCN1CCN(Cc2ccc(NC(=O)c3ccc(C)c(Oc4ccnc5[nH]ccc45)c3)cc2C(F)(F)F)CC1 | 16.9 | 6.6 | inactive | 0.1 | -0.4 | inactive |  |  |  |  | 
CNc1cc(Oc2cc(C(=O)Nc3cc(N4CCN(C)CC4)cc(C(F)(F)F)c3)ccc2C)ncn1 |  |  |  |  |  |  | 11.6 | 4.8 | 0.7 | -1.3 | 0.4
